One data set deals with T1, PGI2 receptor (Homo sapiens, UniProt P43119).
T1 construct: host or cells: HEL 92.1.7 human erythroleukemia cells (whole cells)
The experiment in a line: PGI2 receptor binding/cAMP in HEL cells (in vitro activity grade). To be noted: compounds of purity about 40 to 90%. On the procedure: [Measurement of the [^3H]-Iloprost Binding to HEL Cells] (Assay 1) A human erythloleukemia cell line, HEL 92.1.7, was purchased from American Type Culture Correction and maintained in RPMI-1640 medium (Gibco BRL) supplemented with 10% fetal calf serum (FCS), 2 mM glutamine, 4.5 g/L glucose, 10 mM Hepes, 1 mM sodium pyruvate, 100 U/ml penicillin, and 100 μg/ml streptomycin in a humidified 5% CO2 atmosphere at 37° C. Cells were collected with centrifugation and washed with binding assay buffer (BAB: 50 mM Tris-HCl, 5 mM MgCl2 (pH 7.5)). Cells were suspended at the density of 6.25×10^6 cells/ml in BAB, and one million cells in 160 μl aliquot of cell suspension were put in a well of 96 well plate (Falcon). Then, 20 μl of compound solution, 100 μM of iloprost (for non-specific binding), or buffer alone (total binding), diluted with 1% DMSO in BAB was added. Finally, another 20 μl containing [^3H]-iloprost (0.02 μCi, 0.5-1 pmol) in BAB was added and incubated at room temperature for 30 min with a gentle shaking. Cell suspension was then transferred to a well of MultiScreen plate with GF/C glass filters (Millipore) to harvest cells. Cells were washed twice with 200 μl of ice-cold BAB and the plate was kept at 55° C. for 30 min to dry filters. The filter in the well was punched out to a counting tube and 2 ml of Ultima Gold XR Packard) was added. [^3H]-radio activity in the filter was measured by a liquid scintillation counter (Beckman, USA). [Iloprost-Induced cAMP Production Assay in HEL Cells] (Assay 2) HEL cells were collected with centrifugation and washed with cAMP assay buffer (CAB: Hank's balanced salt solution, 17 mM Hepes, 0.1% bovine serum albumin, 1 mM IBMX, 0.4% DMSO, and 1 mM L-ascorbic acid sodium salt (pH 7.4)). Cells were suspended at the density of 2.5×10^5 cells/ml in CAB, and twenty thousand cells in 80 μl aliquot of cell suspension were put in a well of 96 well plate (Falcon). Then, 10 μl of compound solution diluted with 1% DMSO in CAB or buffer alone was added. The plate was incubated at 37° C. for 30 min. Then, another 10 μl containing 100 nM iloprost in CAB or buffer alone was added and further incubated at 37° C. for 30 min. cAMP content in the well was measured by, a cAMP ELISA kit (Applied Biosystems, USA). The data corresponds to the compounds as yielded by solid phase synthesis and thus to levels of purity of about 40 to 90%. For practical reasons, the compounds are grouped in three classes of activity as follows: In vitro activity grade=A≦0.1 μM<B≦1 μM<C

The structures appear in SMILES notation.

T1 sequence (P43119 whole entry): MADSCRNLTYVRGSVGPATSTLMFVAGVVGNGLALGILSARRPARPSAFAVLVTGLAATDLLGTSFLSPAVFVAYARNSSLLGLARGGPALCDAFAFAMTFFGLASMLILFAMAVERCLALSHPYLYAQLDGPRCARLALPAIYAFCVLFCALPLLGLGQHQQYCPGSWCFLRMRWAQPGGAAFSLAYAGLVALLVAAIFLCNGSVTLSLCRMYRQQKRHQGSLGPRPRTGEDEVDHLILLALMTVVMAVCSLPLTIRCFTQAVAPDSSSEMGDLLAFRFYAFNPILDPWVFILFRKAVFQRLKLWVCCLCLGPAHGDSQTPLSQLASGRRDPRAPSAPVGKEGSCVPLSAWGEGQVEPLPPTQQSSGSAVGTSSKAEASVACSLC

What is called melting point is the temperature, or range, at which the solid turns liquid. Turning to `O=C(NC(Cc1ccccc1)C(=O)O)c1cc(-c2ccc(OCc3ccccc3)cc2)[nH]n1` (centres unmarked) [Example 1-1, 2-{[5-(4-Benzyloxyphenyl)-1H-pyrazole-3-carbonyl]amino}-3-phenylpropionic acid], the melting point fell in the range of 196 to 200 °C. Also, on PGI2 receptor, the “In vitro activity grade” value is listed as “A (A≦0.1 μM)”.

Take `O=C(NC(Cc1ccccc1)C(=O)O)c1ccc(-c2ccc(OCc3ccccc3)cc2)s1` (centres unmarked) [Example 2-1, 2-{[5-(4-Benzyloxyphenyl)thiophene-2-carbonyl]amino}-3-phenyl-propionic acid]: the melting point fell in the range of 215 to 216 °C. In addition, the “In vitro activity grade” value at PGI2 receptor is recorded as “A (A≦0.1 μM)”.

The compound `O=C(NC(Cc1ccccc1)C(=O)[O-])c1ccc(-c2ccc(OCc3ccccc3)nc2)cc1.[Na+]` (centres unmarked) [Example 6-1, Sodium 2-[4-(6-benzyloxypyridin-3-yl)benzoylamino]-3-phenylpropionate] gave a melting point of 240 to 242 °C. In addition, the “In vitro activity grade” value at PGI2 receptor was “A (A≦0.1 μM)”.

`O=C(NC(Cc1ccccc1)C(=O)O)c1ccc(-c2ccc(OCc3ccccc3)c(F)c2)cc1` (centres unmarked) [Example 7-1, 2-[(4′-Benzyloxy-3′-fluorobiphenyl-4-carbonyl)amino]-3-phenylpropionic acid] yielded a melting point of 215 °C. Also, the “In vitro activity grade” value on PGI2 receptor is given as “A (A≦0.1 μM)”.

Values taken from US20060247260A1, “Bis (hetero) aryl carboxamide derivatives for use as PG12 antagonists” (BAYER HEALTHCARE AG, priority 2003, published 2006).
